Data set [1] has as its system human GM-CSF-dependent erythroblastic TF-1 cell line. As to the kind of experiment: In vitro effect of ON 01910.Na on cell cycle readouts in TF-1 cells by SCNP. Particulars: 24 hours. Type of data set: cell-based. The protocol:
FIG. 2: In vitro effect of ON 01910.Na at clinically relevant concentrations on intracellular pathways in human GM-CSF-dependent erythroblastic TF-1 cell line using SCNP was evaluated in order to monitor transitional changes in the cell cycle, with a focus on the G2-M phase and to perform dose-dependent titrations of drug using these cell cycle readouts. The reagents chosen to measure cell cycle readouts were fluorochrome-conjugated antibodies that recognize cyclin B1, p-histone H3(S28) and p-Cdk1(Y15) and 4′6′-diamino-2-phenylindole (DAPI). […] TF-1 cell DNA content measured by DAPI verified this to be the case as increases in G2/M and sub-G1 (a measure of apoptotic cell death) were simultaneously observed. […] These effects were also observed at 48 hours, although with more cell death. This assay was used to measure the pharmacodynamics activity of the drug in MDS patient samples pre- and post-treatment with ON 01910.Na.

A short description of data set [2]: Oral administration of Rigosertib 25 mg dose capsule in MDS patients, plasma level.

The values below come from patent US10576050B2, “Methods and compositions for treatment of cancer” (ONCONOVA THERAPEUTICS, INC., priority 2012, dated 2020).

For the compound `COc1cc(OC)c(/C=C/S(=O)(=O)Cc2ccc(OC)c(NCC(=O)[O-])c2)c(OC)c1.[Na+]` [Rigosertib, sodium (E)-2-{2-methoxy-5-[(2′,4′,6′-trimethoxystyrylsulfonyl)methyl]phenylamino}acetate], the “effect on G2/M cell cycle transition” value in data set [1] (DAPI DNA content) is “mitotic arrest with subsequent apoptosis”. For the same compound, the “drug concentration of maximal effects on cell cycle signaling molecules” value in data set [1] (cyclin B1, p-histone H3(S28), p-Cdk1(Y15)) is 0.37 µM. In addition, in data set [2] (human, plasma, po, 25 mg), the half-life was ~10 h. For the same compound, the plasma peak level in data set [2] (oral, 25 mg dose capsule, MDS patients) lay within 2 to 4 µM.
